Laboratory results taken from ChEMBL document CHEMBL1201862, “PubChem BioAssay data set” (2004).
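Cells were grown in 96-well plates and exposed to each compound for 48 hours at five concentrations; endpoints were interpolated linearly between bracketing concentrations, or set to the highest concentration if not reached. Abbreviation: GI50, concentration required for 50% inhibition of growth.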 Calls of active or inactive are those of the source. No stated cut-off is given here; in the data, active = GI50 up to about 1.1 µM and inactive = higher.

Experiments:
Test in all cases: NCI tumour cell line growth inhibition, 48 h
[1] = tested on: XF498
[2] = tested on: LXFL 529
[3] = tested on: DMS-114
[4] = tested on: HOP-18
[5] = tested on: DMS-273
[6] = tested on: SNB-78
[7] = tested on: RXF 631
[8] = tested on: KM-20L2
[9] = tested on: DLD-1

Row | SMILES | GI50 [1] | GI50 [2] | GI50 [3] | GI50 [4] | GI50 [5] | GI50 [6] | GI50 [7] | GI50 [8] | GI50 [9]
1 | CC(=O)Nc1ccccc1Sc1ccccc1 | > 100 µM (inactive) | > 100 µM (inactive) | > 100 µM (inactive) | > 100 µM (inactive) | > 100 µM (inactive) | > 100 µM (inactive) | > 100 µM (inactive) | > 100 µM (inactive) | 
2 | Cn1nc(-c2ccccc2)c(C(=O)/C=C/c2ccc(Cl)cc2)c(N2CCCC2)c1=O | 10.4 µM (inactive) | 3.47 µM (inactive) | 2.84 µM (inactive) | 6.49 µM (inactive) | 3.62 µM (inactive) |  | 6.12 µM (inactive) | 3.78 µM (inactive) | 2.69 µM (inactive)
3 | [N-]=[N+]=Nc1ncnc2c1sc(=S)n2-c1ccccc1 | > 100 µM (inactive) | > 100 µM (inactive) | > 100 µM (inactive) | > 100 µM (inactive) | > 100 µM (inactive) | > 100 µM (inactive) |  | > 100 µM (inactive) | > 100 µM (inactive)
4 | COC1(C)CNCC(C)(C)NC(=O)C(C)(OC)CNCC(C)(C)NC1=O (configuration not stated) |  | > 100 µM (inactive) | > 100 µM (inactive) | > 100 µM (inactive) | > 100 µM (inactive) | > 100 µM (inactive) | > 100 µM (inactive) | > 100 µM (inactive) | > 100 µM (inactive)
5 | C=CN1C(=O)[C@H](Oc2ccccc2)[C@@H]1c1ccccc1 | 26.1 µM (inactive) | 31.4 µM (inactive) | 27.6 µM (inactive) | 37.8 µM (inactive) |  | 43.5 µM (inactive) |  | 31.7 µM (inactive) | 28.5 µM (inactive)
6 | CC1=NN(C(=O)c2ccc(Cl)cc2)C(=O)/C1=C/c1c(O)cc(O)c2ccccc12 | > 100 µM (inactive) | > 100 µM (inactive) | > 100 µM (inactive) |  |  | > 100 µM (inactive) |  | > 100 µM (inactive) | > 100 µM (inactive)
7 | COC(=O)C(CBr)CBr | 2.3 µM (inactive) | 1.79 µM (inactive) | 2.06 µM (inactive) |  | 12.7 µM (inactive) | 1.79 µM (inactive) | 3.05 µM (inactive) | 6.76 µM (inactive) | 2.04 µM (inactive)
8 | Cc1ccc(NC(=O)CCc2n[nH]c(=S)o2)cc1 | > 100 µM (inactive) | > 100 µM (inactive) | > 100 µM (inactive) | > 100 µM (inactive) | > 100 µM (inactive) | > 100 µM (inactive) | > 100 µM (inactive) | > 72.1 µM (inactive) | > 100 µM (inactive)
9 | CCN(CC)c1ccc(/N=N/c2ccc(-c3nc4cccnc4s3)cc2)cc1 | 18.2 µM (inactive) | > 100 µM (inactive) | 46.5 µM (inactive) |  |  | > 100 µM (inactive) |  | > 100 µM (inactive) | > 100 µM (inactive)
10 | CN(C)CC/C(=N\Nc1ccc(Cl)cc1Cl)c1ccccc1 |  | 13.2 µM (inactive) | 13.8 µM (inactive) | 8.85 µM (inactive) | 13.8 µM (inactive) | 13.5 µM (inactive) |  | 14.3 µM (inactive) | 10.3 µM (inactive)
11 | CN(C=O)/C=C/c1cc(O)ccc1O |  | 18.8 µM (inactive) | 45.9 µM (inactive) | 14.6 µM (inactive) | > 39.4 µM (inactive) | 30.8 µM (inactive) | 47.5 µM (inactive) | > 46 µM (inactive) | 20 µM (inactive)
12 | Nc1ncnc2c1ncn2C1OC(CSCc2ccc(Cl)cc2)C(O)C1O (configuration not stated) | 22.8 µM (inactive) | 17.2 µM (inactive) | 21.9 µM (inactive) | 42 µM (inactive) | 30.1 µM (inactive) | 68.9 µM (inactive) |  | 9.55 µM (inactive) | 14.6 µM (inactive)
13 | COC(=O)[C@H]1C=C[C@@H](C)n2c(=O)c3ccccc3c(=O)n21 | > 100 µM (inactive) | > 100 µM (inactive) | > 100 µM (inactive) |  | > 100 µM (inactive) | > 100 µM (inactive) |  | > 100 µM (inactive) | > 100 µM (inactive)
14 | CC(C)(C)OC(=O)c1cccnc1/C=N/O | > 100 µM (inactive) | > 100 µM (inactive) | > 100 µM (inactive) | > 100 µM (inactive) | > 100 µM (inactive) | > 100 µM (inactive) | > 100 µM (inactive) | 51.4 µM (inactive) | > 100 µM (inactive)
15 | COC(CC1(OC)OC(=O)C=C1N)OC (configuration not stated) |  | > 100 µM (inactive) | > 100 µM (inactive) | > 100 µM (inactive) | > 100 µM (inactive) | > 100 µM (inactive) |  |  | > 100 µM (inactive)
16 | O=C1c2ccccc2C(=O)N1C/C=N/NS(=O)(=O)c1cccc([N+](=O)[O-])c1 | > 100 µM (inactive) | > 100 µM (inactive) | > 100 µM (inactive) |  | > 100 µM (inactive) |  |  | > 100 µM (inactive) | > 100 µM (inactive)

Row | SMILES | GI50 [1] | GI50 [2] | GI50 [3] | GI50 [4] | GI50 [5] | GI50 [6] | GI50 [7] | GI50 [8] | GI50 [9]
17 | C=C1C(=O)OC2/C=C(/C)C3CC(O)C(C)(CC(OC(=O)/C(C)=C/C)C12)O3 (configuration not stated) | 3.56 µM (inactive) | 2.08 µM (inactive) | 7.01 µM (inactive) | 17.4 µM (inactive) | 2.54 µM (inactive) | 2.61 µM (inactive) |  | 2.32 µM (inactive) | 1.54 µM (inactive)
18 | O=C(Nc1nc2ccccc2n1Cc1ccccc1)NC12CC3CC(CC(C3)C1)C2 | 17.8 µM (inactive) | 67.8 µM (inactive) | 57.3 µM (inactive) | 44.8 µM (inactive) | 16.9 µM (inactive) | 19.8 µM (inactive) |  | > 100 µM (inactive) | 87.9 µM (inactive)
19 | CCOC(=O)NC(=O)c1cn(CCCOC(=O)NCCCCCCNC(=O)OCCCn2cc(C(=O)NC(=O)OCC)c(=O)[nH]c2=O)c(=O)[nH]c1=O |  | 57.4 µM (inactive) | 15.3 µM (inactive) | 82.8 µM (inactive) | 30.7 µM (inactive) | 36.7 µM (inactive) |  | 50 µM (inactive) | 31.3 µM (inactive)
20 | CNC1=Nc2ccc(Cl)cc2C(OP(=O)(N2CCOCC2)N2CCOCC2)=NC1 | > 100 µM (inactive) | > 100 µM (inactive) | > 100 µM (inactive) | > 100 µM (inactive) | > 100 µM (inactive) | > 100 µM (inactive) | > 100 µM (inactive) | > 100 µM (inactive) | > 100 µM (inactive)
21 | CCOC(=O)C1=C(c2ccccc2)NC(c2ccccc2)=C(C(=O)OCC)c2c1c(=O)cc[nH]c2=O | > 100 µM (inactive) | > 100 µM (inactive) |  |  | > 100 µM (inactive) | 94 µM (inactive) | 34.7 µM (inactive) | > 100 µM (inactive) | > 100 µM (inactive)
22 | CC(=O)CC(=O)CCC(=O)Nc1cccc(C(F)(F)F)c1 | > 100 µM (inactive) | > 100 µM (inactive) | > 100 µM (inactive) | > 100 µM (inactive) | > 100 µM (inactive) | > 100 µM (inactive) |  | > 100 µM (inactive) | > 100 µM (inactive)
23 | COC(=O)c1cccc2cccc(C(=O)Nc3ccc(C)cc3C)c12 | 54.6 µM (inactive) | > 100 µM (inactive) | > 100 µM (inactive) | 65.5 µM (inactive) | > 100 µM (inactive) | > 100 µM (inactive) | > 100 µM (inactive) | > 100 µM (inactive) | > 100 µM (inactive)
24 | O=c1cc(-c2cccnc2)[nH]c2cc3c(cc12)OCO3 | 7.36 µM (inactive) | 2.3 µM (inactive) | 7.01 µM (inactive) | 1.17 µM (inactive) | 4.13 µM (inactive) | 27.7 µM (inactive) |  |  | 4.03 µM (inactive)
25 | CC(=O)c1ccc(NC(=O)C(=O)C(C(=O)/C=C/c2ccccc2)C2OC(=O)c3ccccc32)cc1 (configuration not stated) | > 100 µM (inactive) | 96.6 µM (inactive) |  | > 100 µM (inactive) | > 100 µM (inactive) | > 100 µM (inactive) | > 100 µM (inactive) | > 100 µM (inactive) | > 100 µM (inactive)
26 | Cn1cc(NC(=O)c2cc(NC(=O)CCCCCC(=O)Nc3cc(C(=O)Nc4cc(C(=O)NCCC(=N)N)n(C)c4)n(C)c3)cn2C)cc1C(=O)NCCC(=N)N | > 100 µM (inactive) | > 100 µM (inactive) | 33 µM (inactive) | > 100 µM (inactive) | 67.3 µM (inactive) | > 100 µM (inactive) | > 100 µM (inactive) | > 100 µM (inactive) | > 100 µM (inactive)
27 | N#C/C(=C/c1cccc2ccccc12)C(=O)c1ccccc1 | 20.1 µM (inactive) |  | 51.6 µM (inactive) |  |  | 42.9 µM (inactive) |  | 19 µM (inactive) | 
28 | O=C(c1ccccc1)N1C2C3CC(OCc4ccccc4)(OCc4ccccc4)C(O3)C21 (configuration not stated) | > 100 µM (inactive) | > 100 µM (inactive) | > 100 µM (inactive) |  |  | > 100 µM (inactive) | > 100 µM (inactive) | > 100 µM (inactive) | > 100 µM (inactive)
29 | CCCCCCC(O)C/C=C/CCCCCC/C(C(=O)OC)=C(/O)C(=O)OCC (configuration not stated) | > 100 µM (inactive) | > 100 µM (inactive) | > 100 µM (inactive) | > 100 µM (inactive) | > 100 µM (inactive) | > 100 µM (inactive) | > 100 µM (inactive) |  | > 100 µM (inactive)
30 | COc1cc2c(c(OC)c1OC)-c1ccc(SC)c(=O)cc1[C@@H](NC(=O)c1cccc([N+](=O)[O-])c1)CC2 | 0.0205 µM (active) | 0.0239 µM (active) |  |  | < 0.01 µM (active) | 0.0243 µM (active) | 0.0164 µM (active) | 0.0172 µM (active) | < 0.01 µM (active)
31 | N#CC(C#N)=C(N)/C(C#N)=C/c1cc(O)c(O)c(Br)c1 | 35.7 µM (inactive) | 44.9 µM (inactive) | 29.1 µM (inactive) |  | 59.2 µM (inactive) | 75.7 µM (inactive) |  | 31.7 µM (inactive) | 55.6 µM (inactive)
